Data taken from EP0719267B1, “SECOND MESSENGER CELL SIGNALING INHIBITORS” (CELL THERAPEUTICS, INC., priority 1993, dated 1994).

What was measured:
[1] = system: murine thymocyte proliferation; test: Thymocyte proliferation stimulated by Con A and IL-1α; format: cell-based; conditions: Mus musculus, 2 h, added two hours prior to Con A and IL-1α
Experimental: In a first part of this example, compounds nos. 30, 33, 28 and 27 (see above for chemical names and structures) show effective inhibition of murine thymocyte proliferation stimulated by Con A and interleukin 1 alpha (IL-1α). Compounds nos. 30, 33, 28 and 27 were added to cell cultures two hours prior to activation with Con A and IL-1α in a thymocyte co-stimulation procedure akin to that discussed in example 21. […] IC50 values determined for each inventive compound tested are as follow: compound no. […] Background counts in the assay were less than 200 cpm.

CMV promoter activity = test: microbe, parasite or virus in culture; format: cell-based
Text: This example illustrates data of proliferative activity of various inventive compounds for inducing CMV promoter activity. The CMV promoter assay measures gene transcription and translation activity wherein any active compounds will have cytotoxic activity for inhibiting cellular protein synthesis in transformed (adenovirus) cells. Compound no. […]

[2] = system: murine thymocyte proliferation; test: Thymocyte proliferation co-stimulated by ConA and IL-2 (tritiated thymidine); format: cell-based, Balb/C mice; conditions: ConA and IL-2 co-stimulation
Experimental: (§1) ConA, used to activate CD3, induces T-cell proliferation and differentiation. Thymuses, obtained from normal, female Balb/C mice, were dissociated and plated into 96-well plates at a density of 2 x 10^5 cells/well. ConA (0.25 mg/ml) and IL-2 (15 U/ml) were added to the wells. The cells were incubated for 4 days at 37°C. On day 4, the cells were pulsed with tritiated thymidine and incubated for an additional 4 hours. The amount of tritiated thymidine dye incorporated by the harvested cells was determined in a liquid scintillation counter. Drug doses (shown in figs. 1A and 1B) were added two hours prior to ConA and IL-2 activation.
as §1, with “Thymuses,” for “ConA, used to activate CD3, induces T-cell proliferation and differentiation. Thymuses,”, “37 °C.” for “37°C.”, “Doses” for “Drug doses”, “26A, 26B” for “1A”, “26C)” for “1B)”
In another in vitro protocol, thymocyte proliferation was induced by sub-mitogenic doses of Con A (0.25 µg/ml) and IL-2 (20 ng/ml). Cells were stimulated for 96 hours, prior to addition of ^3H-TdR for 4 hours. The cells were harvested and incorporation of ^3H-TdR was determined.
45 on co-stimulated thymocyte proliferation. In an assay procedure, murine thymocytes were stimulated with ConA and IL-2 with 1 µM compound no. 45 added either 1 hour prior to IL-2 (-1), simultaneous with IL-2 (0) or at various times following IL-2 addition (1-92 hour). At 92 hours the thymocytes were pulsed with ^3H-TdR, harvested and counted by scintillation 4 hours later.

Human stromal cells = test: Stromal cell proliferation in response to PDGF-BB; format: cell-based; conditions: 50 ng/ml PDGF-BB
Experimental: This assay is useful for predicting therapeutic activity for preventing or treating restenosis, atherosclerosis and coronary artery disease. Human stromal cells were starved in serum-free media for one day and then stimulated with 50 ng/ml PDGF-BB. Inventive compounds, at various concentrations, were added one hour prior to PDGF stimulation. PDGF and tritiated thymidine were added and the cells allowed to incubate for one day, following addition of the PDGF and thymidine. 24 Hours later, the cells were harvested and counted by liquid scintillation counting. Results for compounds nos. Background counts (i.e., starved cells) were approximately 1% of control levels. […] 30, 28, 29, 32 and 31, respectively.

[3] = system: PDGF/IL-1 co-stimulation, proliferation; test: PDGF/IL-1 co-stimulation proliferation assay; format: cell-based; conditions: fig. 14
Text: The PDGF/IL-1 assay is useful in measuring in vitro activity, indicative of therapeutic potential for treating or preventing restenosis and reperfusion. Figure 14 reports IC50 bar graph results for a group of inventive compounds nos. 27, 28, 32, 30, 31, 32 and 34. In this predictive, in vitro model, compounds nos.

Saccharomyces cervisiae = test: Yeast growth assay (anti-yeast and anti-fungal activity); format: cell-based; conditions: 100 µM
Experimental: This example illustrates the effects of a reference compound "X", and inventive compounds nos. 29, 30, 31, 32 and 33 (see above for names and structures) on yeast growth (Saccharomyces cervisiae)--using 100 µM concentrations--as compared with yeast activity in the absence of any compound additive (control). This assay measured anti-yeast and anti-fungal activity of the inventive compounds tested.

[4] = Cytotoxicity to stromal cells in the stromal cell/PDGF stimulation assay; format: cell-based; conditions: human, read-out: concentrations with cytotoxic effects
Experimental: In conjunction with the human stromal cell/PDGF stimulation assay, cytotoxicity of the inventive compounds tested to stromal cells was also determined. […] Only compond no.

mast cell degranulation = test: Serotonin release assay for inhibition of mast cell degranulation; format: cell-based; conditions: Concentration 50 µM
Text: This assay provides an in vitro model for an allergy and asthma therapeutic product. […]

[5] = system: splenocyte IL-2-stimulated proliferation; test: Splenocyte IL-2-stimulated proliferation; format: cell-based; conditions: Mus musculus, read-out: block of splenocyte IL-2-stimulated proliferation
[6] = system: IL-2 (alpha chain CD25) receptor; test: IL-2 receptor expression on anti-CD3 stimulated splenocytes (flow cytometry); format: cell-based, mouse; conditions: anti-CD3 10 µg/ml, 1 µM
Experimental: This investigation illustrates IL-2 (alpha chain CD25) receptor expression on mouse splenoyctes. The IL-2 receptor is not expressed on resting T-cells, but is rapidly-induced by certain stimulants, e.g. antigen recognition or treatment with ConA or antibodies to CD3 (anti-CD3). IL-2-dependent proliferation requires IL-2 receptor expression. […] 49 (1 µM). Following overnight incubation, the splenocytes were stained with a fluoresceinated anti-IL-2 receptor antibody and fluorescence measured by flow cytometry. Figures 5A and 5B are frequency histograms of measurements for 20,000 cells per sample.
In another assay, inventive compound no. […] Murine splenocytes were activated for 24 hours with anti-CD3 (1 µg/ml), stained with a fluorescent antibody to CD25 and analyzed by flow cytometry.

[7] = system: murine cytotoxic T-cell line, CT6; test: Cytokine-induced proliferation of the cytotoxic T-cell line CT6 / CT-6.1; format: cell-based; conditions: added one hour prior to IL-2, thymidine at 48 hours
Experimental: Another assay in this example was used to determine inhibitive activity of the inventive compounds on direct IL-2-induced proliferation in a murine cytotoxic T-cell line, CT6. The CT6 cell line is an IL-2-dependent cell line. IL-2 was removed from the medium for 24 hours prior to stimulation. […] 49, 50, 45, 43 or 41 were added at various concentrations. The cells were stimulated with IL-2 and amount of tritiated thymidine dye incorporated was measured 48 hours later.
In another related assay, inhibitory effects on CT6 cell proliferation is examined. CT6 cells are a murine IL-2 dependent, cytotoxic T cell line that proliferate in response to murine IL-2 (15 U/ml).
CT-6.1 cells were starved overnight and stimulated with IL-2 (20 ng/ml). Twenty hours later, cells were labeled for 4 hours with ^3H-TdR and counted by liquid scintillation.
CT6.1 cells were cultured with IL-2 with or without the addition of inventive compound no. 45 (2 µM) and viable cells counted for up to 8 days. On day 4, two cultures previously incubated with compound no. 45, were washed and recultured with fresh IL-2 with or without compound no. 45 (2 µM).
Procedurally, CT-6.1 cells were starved overnight and stimulated with either IL-2 (20 ng/ml), IL-4 (50 ng/ml) or IL-7 (25 ng/ml). ^3H-TdR was added at 20 hours, cells were harvested 4 hours later, and the incorporation of ^3H-TdR was determined.

IL-2 = IL-2 production in thymocytes stimulated with ConA and IL-1 (ELISA); format: cell-based, murine; conditions: ConA and IL-1, 4 days
Text: Thymocytes were stimulated with ConA and IL-1 for 4 days with or without adding inventive compounds to the culture media. The supernatants were removed and assayed by ELISA for IL-2 levels by a commercially available kit.

[8] = system: murine lymph node cell proliferation; test: Lymph node cell proliferation stimulated by antigen; format: cell-based; conditions: Mus musculus
Text: This example illustrates activity of representative inventive compounds nos. 27, 49, 50, 45, 43 or 41 (above) in assays detecting activity in response to cell stimulus. One assay, murine lymph node cell proliferation (stimulated by anitgen) was used to determine inhibitive activity of compound no. 27 on proliferation of the lymph node cells. This in vitro assay is an immune suppressive/autoimmune treatment predictive assay emphasizing cellular or T cell immune response. The assay used murine T cells that proliferate in vitro in response to a soluble protein antigen, used to prime the T cells in vivo. Compound was added to the cells at doses indicated in figures 7 and 8 (showing assay results) two hours prior to activation with […]. Compound no. 27 inhibited T cell proliferation in a dose-response manner. IC50 values for compound no.

[9] = system: mixed lymphocyte reaction assay culture; test: Cell percent viability in mixed lymphocyte reaction culture; format: cell-based; conditions: 100 µM, six days of cell culture
Experimental: Cell percent viability in mixed lymphocyte reaction assay culture was determined after six days of cell culture. […] Control cells unexposed to drugs are generally 78 to 85% viable under these culture conditions. In this assay, all inventive compounds were present at 100 µM concentrations, generally well above corresponding IC50 values in this assay (see fig. 2D). […] Compounds nos.

[10] = system: transformed cells (Ras 3T3) and normal 3T3 cells; test: Cytotoxicity for transformed versus non-transformed cells; format: cell-based; conditions: 1, 10 and 100 µM
Experimental: This example compares cytotoxicity results for inventive compound no. 27 for transformed cells and non-transformed cells. In transformed cells (Ras 3T3) and in normal 3T3 cells, cytotoxicity of compound no. 27 at concentrations of 1, 10 and 100 µM was determined. Figure 18 reports results obtained in this assay. At each of the above concentrations, compound no.

[11] = system: proliferative PMBC response to allogeneic stimulation; test: Two-way mixed lymphocyte reaction; format: cell-based
Text: This example illustrates therapeutic potential for various autoimmune and inflammatory diseases of the inventive compounds by comparing potency (inhibitive activity) with cytotoxicity data obtained using the following indicative assay procedures. In a mixed lymphocyte reaction assay of compounds nos. […] Compounds nos. […] 2A and 2B. Both compounds nos. […] 2C.
Compound no. […] Compound no.

[12] = system: murine splenocyte proliferation; test: Splenocyte (B cell) proliferation stimulated by anti-mu/anti-IgM and IL-4; format: cell-based; conditions: Mus musculus, anti-mu and IL-4 12.5 ng/ml
Experimental: This example illustrates inhibitive effects of compounds nos. 27 and 28 on murine splenocyte proliferation stimulated by anti-mu ([…]) and interleukin-4 (IL-4, 12.5 ng/ml). This in vitro assay, described above, is indicative of immune-suppressive/autoimmune treatment assay emphasizing humoral or B cell immune response. The inventive compound was added to the cells at the doses indicated two hours prior to activation with anti-mu and IL-4. Both compounds nos. 27 and 28 inhibited splenocyte proliferation in a dose-response manner. IC50 values for compounds nos. Background counts were less than 200 cpm.
In figure 57, results shown illustrate that inventive compound no. 45 inhibits B cell proliferation. Murine splenocytes were stimulated with anti-IgM antibodies (10 µg/ml) and murine IL-4 (12.5 ng/ml). Cells were pulsed with ^3HTdR at 44 hours, harvested 4 hours later, and the incorporation of ^3H-TdR was determined by liquid scintillation.

## CCCCCCCCCCCNCC(O)CCCCn1c(=O)c2c(ncn2C)n(C)c1=O (centres unmarked) [compound no. 30, 1-(6-Undecylamino-5-hydroxyhexyl)-3,7-dimethylxanthine]
[1]
  IC50: 0.94 µM
CMV promoter activity
  cytotoxicity, ranking among compounds tested: the most cytotoxic compound tested
CMV promoter activity; transformed (adenovirus) cells
  IC50: 15 µM
[2]
  inhibition of thymocyte proliferation: the most potent immune-suppressive effects
Human stromal cells
  IC50: 0.9 µM
[3]
  inhibitive activity: potent inhibitive activity
Saccharomyces cervisiae
  yeast-growth inhibitive activity: showed yeast-growth inhibitive activity
[4]
  MCC: > 900 nM
Mast cell degranulation
  % Inhibition: too toxic

## CCCCCCCCCCNCC(O)CCCCCCCCCn1c(=O)c2c(ncn2C)n(C)c1=O (centres unmarked) [compound no. 49, 1-(11-Decylamino-10-hydroxyundecyl)-3,7-dimethylxanthine]
[5]
  inhibition at 1 µM: 90%
[6]
  IL-2 receptor expression: has no effect on receptor expression
[7]
  inhibition of direct IL-2-induced proliferation: inhibited direct IL-2-induced CT6 proliferation
IL-2
  IL-2 production: do not inhibit production of IL-2

## Cn1cnc2c1c(=O)n(CCCCCCCC(O)CNCc1ccccc1)c(=O)n2C (centres unmarked) [compound no. 27, 1-(8-hydroxy-9-(N-benzyl)aminononyl)-3,7-dimethylxanthine]
[1]
  IC50: < 12.5 µM
[8]; first experiment (fig. 7)
  IC50: 23.1 µM
[8]; second experiment (fig. 8)
  IC50: 19 µM
[2]
  inhibition of thymocyte proliferation: the most potent immune-suppressive effects
[9]
  cytotoxicity (percent viability): little or no cytotoxicity
[10]
  differential cytotoxicity: more cytotoxic for the cancer cells than normal cells
[11]; Lymphocyte, figs. 2A-2C
  IC50: 40 µM
[11]; fig. 2D
  immune suppression activity: did not exhibit significant suppressive activity
[12]
  IC50: 3.3 µM
Mast cell degranulation; Mast cell
  inhibition at 50 µM: 29%
